The text below walks through data of patent publication US9604975B2, “Indolyl-pyridone derivatives having checkpoint kinase 1 inhibitory activity” (Vernalis (R&D) Ltd., priority 2009, dated 2017).

One experiment deals with T1, CHK1 (Homo sapiens, UniProt O14757).
T1 construct: His; purchased Invitrogen
T1 sequence (O14757 1-476): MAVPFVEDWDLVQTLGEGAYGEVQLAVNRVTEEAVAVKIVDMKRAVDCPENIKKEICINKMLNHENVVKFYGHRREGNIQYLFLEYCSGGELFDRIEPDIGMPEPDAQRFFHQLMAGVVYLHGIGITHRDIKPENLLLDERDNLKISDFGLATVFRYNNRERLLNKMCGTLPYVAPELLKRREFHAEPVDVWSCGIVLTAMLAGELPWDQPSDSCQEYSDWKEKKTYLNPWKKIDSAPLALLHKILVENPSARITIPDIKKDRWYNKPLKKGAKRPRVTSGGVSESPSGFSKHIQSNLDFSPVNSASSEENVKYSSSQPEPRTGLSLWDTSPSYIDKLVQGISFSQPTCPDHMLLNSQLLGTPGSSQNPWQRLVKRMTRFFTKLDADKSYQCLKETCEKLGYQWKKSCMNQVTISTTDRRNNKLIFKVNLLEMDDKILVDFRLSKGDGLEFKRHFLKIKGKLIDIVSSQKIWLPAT
Kind of experiment: CHK1 Enzyme Assay (phosphorylation of Chktide peptide, 33P-ATP filter assay). Type of experiment: biochemical. The settings on record: 12.5 nM His-CHK1, 0.01 mM ATP, 40 minutes at 30° C.; read-out: CHK1 Enzyme Activity (IC50 range). Summed up:
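Filter-binding radiometric readout of 33P incorporation into Chktide (14.8 μM), after a 40 min, 30 °C reaction at pH 7.5 (50 mM Hepes-NaOH, 0.1 mg/mL BSA). The reaction contained 12.5 nM His-tagged CHK1, inhibitor and 0.01 mM cold ATP plus labelled ATP.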

The subject of the next experiment is HT29 cells. Kind of experiment: CHK1 Cellular Assay - Gemcitabine EC50 Assay. It is filed as cell-based. The settings on record: for EC50: HT29 cells, in the presence of gemcitabine at 10 nM, 72 hours, SRB staining, read-out: CHK1 Cellular Activity (EC50 range). Here is the method: The gemcitabine EC50 assay was developed as a rapid method for screening CHK1 inhibitors to determine their relative cell activity. This assay utilises a feature of the effect of CHK1 inhibitors on gemcitabine toxicity. In the absence of a CHK1 inhibitor, gemcitabine acts predominantly as an anti-metbolite and therefore induces very little cell death, even at high concentrations. This can be as high as 70-80% survival at concentrations in excess of 1 μM. However, in the presence of a CHK1 inhibitor, the mechanism of action of gemcitabine switches to a more classical cytotoxic mode of action. For example, the fraction of cells surviving can be reduced to around 30% and below. Concentrations of gemcitabine can be selected that in the absence of a CHK1 inhibitor, have no effect on cell survival but in the presence of a CHK1 inhibitor are highly cytotoxic. 10000 HT29 cells were plated per well of a 96 well plate and allowed to attach at 37° C. in a 5% CO2 humidified incubator for 18 hours. CHK1 inhibitors were then titrated in the presence of 10, 15 and 20 nM gemcitabine for 72 hours and the EC50 determined by staining with sulforhodamine B (SRB) and determining the absorbance at 540 nm.
On the technique in general: Sulforhodamine B stains cellular protein and so reports cell mass.

SMILES strings stand for the structures.

For orientation: IC50 means the concentration that inhibits the measured activity by half. What is called EC50 is the midpoint of the concentration-response curve. For the compound `CCN(Cc1ccc2[nH]c(-c3cc(NC(=O)c4cnn(Cc5ccccc5)c4)c[nH]c3=O)cc2c1)CC(C)(C)CN(C)C` [Example 176, 1-Benzyl-1H-pyrazole-4-carboxylic acid [5-(5-{[(3-dimethylamino-2,2-dimethyl-propyl)-ethyl-amino]-methyl}-1H-indol-2-yl)-6-oxo-1,6-dihydro-pyridin-3-yl]-amide], the IC50 at CHK1 was under 0.1 µM. The EC50 in the experiment on HT29 cells was 0.1 to 0.5 µM.

With `CC(C)(COc1ccc2[nH]c(-c3cc(NC(=O)c4cnn(Cc5ccccc5)c4)c[nH]c3=O)cc2c1)CN1CCCCC1` [Example 185, 1-Benzyl-1H-pyrazole-4-carboxylic acid {5-[5-(2,2-dimethyl-3-piperidin-1-yl-propoxy)-1H-indol-2-yl]-6-oxo-1,6-dihydro-pyridin-3-yl}-amide], the IC50 at CHK1 is under 0.1 µM. In addition, the EC50 in the experiment on HT29 cells is under 0.1 µM.

Turning to `CCN(CC)CC1(COc2ccc3[nH]c(-c4cc(NC(=O)c5cnn(Cc6ccccc6)c5)c[nH]c4=O)cc3c2)CC1` [Example 186, 1-Benzyl-1H-pyrazole-4-carboxylic acid {5-[5-(1-diethylaminomethyl-cyclopropylmethoxy)-1H-indol-2-yl]-6-oxo-1,6-dihydro-pyridin-3-yl}-amide], the IC50 on CHK1 is under 0.1 µM. In addition, the EC50 in the experiment with HT29 cells was under 0.1 µM.

In the case of `Cc1ccc(Cn2cc(C(=O)Nc3c[nH]c(=O)c(-c4cc5cc(CN6CCCCC6)ccc5[nH]4)c3)cn2)cc1` [Example 38, 1-(4-Methyl-benzyl)-1H-pyrazole-4-carboxylic acid [6-oxo-5-(5-piperidin-1-ylmethyl-1H-indol-2-yl)-1,6-dihydro-pyridin-3-yl]-amide], the IC50 at CHK1 is under 0.1 µM. For the same compound, the EC50 in the experiment with HT29 cells lay within 0.1 to 0.5 µM.

As for `CN(C)CC(C)(C)Oc1ccc2[nH]c(-c3cc(NC(=O)c4cnn(Cc5ccccc5)c4)c[nH]c3=O)cc2c1` [Example 179, 1-Benzyl-1H-pyrazole-4-carboxylic acid {5-[5-(2-dimethylamino-1,1-dimethyl-ethoxy)-1H-indol-2-yl]-6-oxo-1,6-dihydro-pyridin-3-yl}-amide], at CHK1, the IC50 is under 0.1 µM. Further, the EC50 in the experiment on HT29 cells was under 0.1 µM.

Take `CC(c1ccccc1)n1cc(C(=O)Nc2c[nH]c(=O)c(-c3cc4cc(CN5CCC(F)CC5)ccc4[nH]3)c2)cn1` (stereo not shown) [Example 87, 1-(1-Phenyl-ethyl)-1H-pyrazole-4-carboxylic acid {5-[5-(4-fluoro-piperidin-1-ylmethyl)-1H-indol-2-yl]-6-oxo-1,6-dihydro-pyridin-3-yl}-amide]: the IC50 at CHK1 was under 0.1 µM. Moreover, the EC50 in the experiment with HT29 cells is under 0.1 µM.

Turning to `O=C(Nc1c[nH]c(=O)c(-c2cc3ccccc3[nH]2)c1)c1cnn(Cc2ccccc2)c1` [Example 20, 1-Benzyl-1H-pyrazole-4-carboxylic acid [5-(1H-indol-2-yl)-6-oxo-1,6-dihydro-pyridin-3-yl]-amide], the IC50 on CHK1 is under 0.1 µM. The EC50 in the experiment on HT29 cells was in the range of 0.1 to 0.5 µM.

On to `CC1CCN(Cc2ccc3[nH]c(-c4cc(NC(=O)c5cnn(Cc6ccccc6)c5)c[nH]c4=O)cc3c2)CC1` [Example 78, 1-Benzyl-1H-pyrazole-4-carboxylic acid {5-[5-(4-methyl-piperidin-1-ylmethyl)-1H-indol-2-yl]-6-oxo-1,6-dihydro-pyridin-3-yl}-amide], for which, at CHK1, the IC50 was under 0.1 µM. Moreover, the EC50 in the experiment on HT29 cells is under 0.1 µM.

With `C[C@@H]1CN(Cc2ccc3[nH]c(-c4cc(NC(=O)c5cnn(Cc6ccccc6)c5)c[nH]c4=O)cc3c2)C[C@H](C)O1` [Example 71, 1-Benzyl-1H-pyrazole-4-carboxylic acid {5-[5-(cis-2,6-dimethyl-morpholin-4-ylmethyl)-1H-indol-2-yl]-6-oxo-1,6-dihydro-pyridin-3-yl}-amide], the IC50 on CHK1 is under 0.1 µM. In addition, in the experiment on HT29 cells, the concentration for a half-maximal effect (EC50) is under 0.1 µM.

In the case of `O=C(Nc1c[nH]c(=O)c(-c2cc3cc(CN4CCC(F)CC4)ccc3[nH]2)c1)c1cnn(Cc2ccccc2)c1` [Example 49, 1-Benzyl-1H-pyrazole-4-carboxylic acid {3-[5-(4-fluoro-piperidin-1-ylmethyl)-1H-indol-2-yl]-6-oxo-1,6-dihydro-pyridin-3-yl}-amide], at CHK1, the concentration for half-maximal inhibition (IC50) is under 0.1 µM. Further, the EC50 in the experiment with HT29 cells was under 0.1 µM.

As to `C[C@H]1CCCCN1Cc1ccc2[nH]c(-c3cc(NC(=O)c4cnn(Cc5ccccc5)c4)c[nH]c3=O)cc2c1` [Example 171, 1-Benzyl-1H-pyrazole-4-carboxylic acid {5-[5-((S)-2-methyl-piperidin-1-ylmethyl)-1H-indol-2-yl]-6-oxo-1,6-dihydro-pyridin-3-yl}-amide], the IC50 on CHK1 was under 0.1 µM. Besides, the concentration giving a half-maximal response (EC50) in the experiment with HT29 cells was under 0.1 µM.

On to `CCN(CC)CC(C)(C)COc1ccc2[nH]c(-c3cc(NC(=O)c4cnn(Cc5ccccc5)c4)c[nH]c3=O)cc2c1` [Example 178, 1-Benzyl-1H-pyrazole-4-carboxylic acid {5-[5-(3-diethylamino-2,2-dimethyl-propoxy)-1H-indol-2-yl]-6-oxo-1,6-dihydro-pyridin-3-yl}-amide], for which the IC50 at CHK1 was under 0.1 µM. For the same compound, in the experiment on HT29 cells, the EC50 was under 0.1 µM.

For `C[C@@H]1CCCCN1Cc1ccc2[nH]c(-c3cc(NC(=O)c4cnn(Cc5ccccc5)c4)c[nH]c3=O)cc2c1` [Example 173, 1-Benzyl-1H-pyrazole-4-carboxylic acid {5-[5-((R)-2-methyl-piperidin-1-ylmethyl)-1H-indol-2-yl]-6-oxo-1,6-dihydro-pyridin-3-yl}-amide], the IC50 on CHK1 was under 0.1 µM. In addition, the EC50 in the experiment with HT29 cells is under 0.1 µM.

Take `CN(C)CC(C)(C)COc1ccc2[nH]c(-c3cc(NC(=O)c4cnn(Cc5ccccc5)c4)c[nH]c3=O)cc2c1` [Example 120, 1-Benzyl-1H-pyrazole-4-carboxylic acid {5-[5-(3-dimethylamino-2,2-dimethyl-propoxy)-1H-indol-2-yl]-6-oxo-1,6-dihydro-pyridin-3-yl}-amide]: the IC50 on CHK1 is under 0.1 µM. The half-maximal effective concentration (EC50) in the experiment with HT29 cells was under 0.1 µM.

As to `C[C@@H]1CCC[C@H](C)N1Cc1ccc2[nH]c(-c3cc(NC(=O)c4cnn(Cc5ccccc5)c4)c[nH]c3=O)cc2c1` [Example 177, 1-Benzyl-1H-pyrazole-4-carboxylic acid {5-[5-(cis-2,6-dimethyl-piperidin-1-ylmethyl)-1H-indol-2-yl]-6-oxo-1,6-dihydro-pyridin-3-yl}-amide], the IC50 on CHK1 was under 0.1 µM. For the same compound, the EC50 with HT29 cells was under 0.1 µM.

For `O=C(Nc1c[nH]c(=O)c(-c2cc3cc(CN4CCCCC4)ccc3[nH]2)c1)c1cnn(Cc2ccccc2)c1` [Example 52, 1-Benzyl-1H-pyrazole-4-carboxylic acid [6-oxo-5-(5-piperidin-1-ylmethyl-1H-indol-2-yl)-1,6-dihydro-pyridin-3-yl]-amide], the IC50 at CHK1 is under 0.1 µM. In addition, in the experiment on HT29 cells, the EC50 is under 0.1 µM.

In the case of `Nc1ccn([C@@H]2O[C@H](CO)[C@@H](O)C2(F)F)c(=O)n1` [gemcitabine, reference compound], the survival in the experiment with HT29 cells (gemcitabine in the absence of a CHK1 inhibitor, concentrations in excess of 1 μM) is 70-80%.

In the case of `CN(CCO)Cc1ccc2[nH]c(-c3cc(C(=O)Nc4cnn(Cc5ccc(F)c(F)c5)c4)c[nH]c3=O)cc2c1` [Example 101, 5-(5-{[(2-hydroxyethyl)-methylamino]-methyl}-1H-indol-2yl)-6-oxo-1,6-dihydropyridine-3-carboxylic acid[1-(3,4-difluorobenzyl)-1H-pyrazol-4-yl]-amide], the IC50 at CHK1 is under 0.1 µM.

On to `Cc1ccc(Cn2cc(C(=O)Nc3c[nH]c(=O)c(-c4cc5cc(OCCN6CCN(C)CC6)ccc5[nH]4)c3)cn2)cc1` [Example 126, 1-(4-Methyl-benzyl)-1H-pyrazole-4-carboxylic acid (5-{5-[2-(4-methyl-piperazin-1-yl)-ethoxy]-1H-indol-2-yl}-6-oxo-1,6-dihydro-pyridin-3-yl)-amide], for which the 50% inhibitory concentration (IC50) at CHK1 was under 0.1 µM.

In the case of `Cc1ccc(Cn2cc(C(=O)Nc3c[nH]c(=O)c(-c4cc5cc(CN6CCC(F)CC6)ccc5[nH]4)c3)cn2)cc1` [Example 37, 1-(4-Methyl-benzyl)-1H-pyrazole-4-carboxylic acid {5-[5-(4-fluoro-piperidin-1-ylmethyl)-1H-indol-2-yl]-6-oxo-1,6-dihydro-pyridin-3-yl}-amide], the 50% inhibitory concentration (IC50) at CHK1 is under 0.1 µM.

For the compound `O=C(Nc1c[nH]c(=O)c(-c2cc3cc(CN4CCCC(F)C4)ccc3[nH]2)c1)c1cnn(Cc2ccc(Cl)cc2)c1` (stereo not shown) [Example 63, 1-(4-Chloro-benzyl)-1H-pyrazole-4-carboxylic acid {5-[5-(3-fluoro-piperidin-1-ylmethyl)-1H-indol-2-yl]-6-oxo-1,6-dihydro-pyridin-3-yl}-amide], the IC50 on CHK1 was under 0.1 µM.
